Patent US6518012B1, “Method for regulating the expression of MHC antigens and CD40 by inhibitors of histone deacetylation” (Health Research, Inc., priority 1999, dated 2003)

What was measured:
Type in all cases: cell-based
CIITA mRNA = CIITA mRNA by RT-PCR and real-time PCR in mouse tumor cells Colon 26 and J558; conditions: for CIITA fold increase / expression of CIITA: Colon 26; for CIITA fold increase: real-time PCR; for expression of CIITA: standard RT-PCR at 35 cycles; for CIITA mRNA activation: titration with different concentrations of TSA for 12 hours, RT-PCR and real-time PCR
Procedure: (§1) To determine the effect of DAIs on HLA-DRα mRNA, cytoplasmic RNA was isolated from untreated and treated human trophoblast cell line JAR using standard techniques (RNeasy System from Qiagen). Standard PCR was performed using primers for DR and CIITA (Murphy et al., 1998, Reprod Dev., Chin et al., 1994, Immunity 1:687-697). Other primers used included human and mouse GAPDH (Clontech) and forward primer 5′-[…]-3′ (SEQ ID NO:25) and reverse primer 5′-[…]-3′ (SEQ ID NO:26) for mouse CIITA. PCR products were amplified with GOLD Taq for 10 min at 95° C., then 95° C. for 30 sec, 60° C. for 60 sec (25-45 cycles), then an extension at 60° C. for 10 min.
(§2) In order to obtain more quantitative information on fold changes in DR and CIITA after treatment with the deacetylase inhibitors, a real time fluorescence technique capable of quantitating low copy numbers of transcripts was carried out as follows. Oligonucleotide primers and TaqMan 5′-6-FAM and 3′-TAMRA-labeled probes were synthesized in the RPCI Biopolymer Facility. Primer and probe sequences are listed under Sequence Listing and also in FIG. 9. Sequences were designed using standard software (PrimerExpress software, PE Biosystems) except for human GAPDH.
(§3) Realtime PCR reactions contained TaqMan Universal PCR Master Mix (PE Biosystems), primers at 300 nM, and probes at optimal concentrations (150-225 nM depending on gene). Reactions were carried out on an ABI PRISM 7700 Sequence Detection System (PE Biosystems). Cycling conditions were 50° C. for 2 min, 95° C. for 10 min, then 60 cycles of 95° C. for 15 sec, 60° C. for 1 min. PCR samples were run in triplicate. The detection system and quantitative PCR was carried out as described by Williamson et al. (1995, Genet Res. 65:83-93). The threshold cycle number CT corresponded to the cycle number, at which the fluorescent emission reaches 10 standard deviations above the mean fluorescent emission, measured during the early ‘baseline’ cycles of the PCR. The CT values for triplicates were averaged and normalized to GAPDH levels. […] In such cases, in order to calculate a minimum fold change for other samples in the same group, the CT value was arbitrarily set at 40. […] Assuming reverse transcription efficiencies were approximately the same for each sample, relative amounts of mRNA using the comparative CT method. Fold changes in mRNA levels were calculated as 2^x where x=the difference between normalized CT values of the control and experimental samples.
(§4) To determine if the effect of DAIs on MHC class II was manifested in other tumors and in different species, the effect of TSA was tested on four commonly used mouse tumor models: the SaI fibrosarcoma, the Colon 26 adenocarcinoma, the J558 plasmacytoma and the P815 mastocytoma. TSA induced class II in all four mouse tumors examined, while the effects of IFNγ were variable (FIG. 4). Data presented for each cell line represents optimal incubation time and concentration of TSA and is compared with 100 U/ml of IFNγ at the same time point. Numbers over bars represents fold changes. […] Colon 26 and J558 that differed strikingly in their reactivity to IFNγ were selected for further evaluation. RT-PCR and real time PCR was used to examine induction of CIITA and IAα by TSA and IFNγ. A20, a constitutively positive B cell line was used as a positive control. The results are shown in FIGS. 5A-D. The numbers over bars represent fold changes. […] Since the classical IFNγ inducible genes IRF-1 and GBP as well as MHC class I mRNA were not induced by IFNγ in J558 (data not shown), this cell line may have a signaling defect in the IFNγ pathway. Unexpectedly however, and unlike either the MC or Colon 26 cells, TSA induced both CIITA (102-fold) and Iα (537-fold) in J558 as shown in FIGS. 5B and 5D.

IAα mRNA = assay: MHC class II (IAα) mRNA by RT-PCR and real-time PCR in mouse tumor models; conditions: for fold increase in Ia (Iα): real-time PCR; for class II mRNA activation: titration with different concentrations of TSA for 12 hours, RT-PCR and real-time PCR
Procedure: as §1, §2, §3, §4

HLA-DRα mRNA = HLA-DRα mRNA by standard PCR and real-time PCR in human cell lines JAR and SK-N-MC; conditions: JAR; for fold increase in HLA-DRα (MHC class II) mRNA over the control: real time quantitative RT-PCR, 100 nM TSA, IFNγ 100 U/ml or combination for 12 hours, sodium butyrate (FIG. 2)
Procedure: as §1
(§5) Oligonucleotide primers and TaqMan 5′-6-FAM and 3′-TAMRA-labeled probes were synthesized in the RPCI Biopolymer Facility. Primer and probe sequences are listed under Sequence Listing and also in FIG. 9. Sequences were designed using standard software (PrimerExpress software, PE Biosystems) except for human GAPDH.
(§6) Realtime PCR reactions contained TaqMan Universal PCR Master Mix (PE Biosystems), primers at 300 nM, and probes at optimal concentrations (150-225 nM depending on gene). Reactions were carried out on an ABI PRISM 7700 Sequence Detection System (PE Biosystems). Cycling conditions were 50° C. for 2 min, 95° C. for 10 min, then 60 cycles of 95° C. for 15 sec, 60° C. for 1 min. PCR samples were run in triplicate. The detection system and quantitative PCR was carried out as described by Williamson et al. (1995, Genet Res. 65:83-93). The threshold cycle number CT corresponded to the cycle number, at which the fluorescent emission reaches 10 standard deviations above the mean fluorescent emission, measured during the early ‘baseline’ cycles of the PCR. The CT values for triplicates were averaged and normalized to GAPDH levels. […] Assuming reverse transcription efficiencies were approximately the same for each sample, relative amounts of mRNA using the comparative CT method. Fold changes in mRNA levels were calculated as 2^x where x=the difference between normalized CT values of the control and experimental samples.
To evaluate the effects of DAIs on human cells, the human trophoblast cell line was treated with 100 nM Trichostatin A (TSA), IFNγ (100 U/ml) or a combination of TSA and IFNγ for 12 hours. RNA was isolated and real time quantitative RT-PCR was carried out. The fold increase in mRNA over the control was calculated.

[1] = test system: class II transactivator (CIITA) mRNA; assay: CIITA mRNA by standard PCR and real-time PCR in human cell lines JAR and SK-N-MC; conditions: for CIITA mRNA fold change: MC cells, real time PCR up to 60 cycles, 100 nM TSA 24 hr, NaBu 1 mM 48 hr
Procedure: as §1, §5, §6
[…] RNA was isolated and real time quantitative RT-PCR was carried out. The fold increase in mRNA over the control was calculated.

[2] = J558, RT-PCR and real-time PCR (FIGS. 5B and 5D)
[3] = SK-N-MC, routine RT-PCR at 35 cycles, 100 nM TSA 24 hours, 1 mM NaBu 48 hours, IFNγ

Molecule | CIITA fold increase (CIITA mRNA) | expression of CIITA (CIITA mRNA) | CIITA fold induction (CIITA mRNA; [2]) [fold] | CIITA mRNA activation (CIITA mRNA; J558) | fold increase in Ia (Iα) (IAα mRNA; Colon 26) [fold] | Iα (class II) fold induction (IAα mRNA; [2]) [fold] | class II mRNA activation (IAα mRNA; J558) | induction of class II mRNA (IAα mRNA; all four mouse tumors (SaI, Colon 26, J558, P815), optimal incubation time and concentration of TSA) | fold increase in HLA-DRα (MHC class II) mRNA over the control (HLA-DRα mRNA) | levels of mRNA for DR (HLA-DRα mRNA; standard PCR, 100 nM or 250 nM TSA or 1 mM sodium butyrate) | CIITA transcription ([1]; JAR, standard PCR at 35 cycles, 100 nM or 250 nM TSA or 1 mM sodium butyrate) | CIITA mRNA fold change ([1]; IFNγ) | CIITA transcription [1, 3] | expression of class II (IAα mRNA; Colon 26, standard RT-PCR at 35 cycles) | induction of class II mRNA (IAα mRNA; J558, 100 U/ml IFNγ (FIG. 4)) | class II mRNA (IAα mRNA; P815, 100 U/ml IFNγ (FIG. 4)) | fold-increases in class II mRNA compared with TSA (IAα mRNA; SaI and Colon 26, 100 U/ml IFNγ)
CC(/C=C/C(=O)NO)=C\[C@@H](C)C(=O)c1ccc(N(C)C)cc1 [TSA, Trichostatin A] | absence | not detected | 102 | induced | 74 | 537 | induced | induced | 15 fold | substantial increase | undetectable | no increase | undetectable |  |  |  | 
IFNγ: gamma-interferon, cytokine used as comparator at 100 U/ml | 20 fold | induced |  | failed to activate | 58 |  | failed to activate |  | did not induce |  |  | 4 fold | not detected | induced | failed to induce | only weakly enhanced | nearly equivalent fold-increases
